What was measured:
[1] = Tested concentration and assay of the active ingredients in the inhalation solution; format: physicochemical; conditions: in the sample solutions (ethanol/water, benzalkonium chloride, edetate disodium dihydrate)
[2] = Aerodynamic particle size distribution on Next Generation Impactor (NGI); format: physicochemical; conditions: sample 2 sprayed with soft mist inhaler, NGI at 30 L/min
Procedure: Sample 2 was sprayed with a soft mist inhaler. Aerodynamic particle size distribution of droplets of sample 2 was measured on Next Generation Impactor (NGI). Next Generation Impactor operated at a flow rate of 30 L/min was used for determination of particle size distribution. For each of the impactor experiments, the impactor collection stages were coated with a silicone oil. The aerodynamic particle size distribution is expressed in terms of mass median aerodynamic diameter (MMAD) and Geometric Standard Deviation (GSD).

With `CCc1cc2c(cc1CC)CC(NC[C@H](O)c1ccc(O)c3[nH]c(=O)ccc13)C2.O=C(O)/C=C\C(=O)O` [Indacaterol maleate, 5-[(R)-2-(5,6-diethyl-indan-2-ylamino)-1-hydroxy-ethyl]-8-hydroxy-(1H)-quinolin-2-one] the “Dissolution of the active in the solution” value [1] was “completely dissolved” and the “MMAD (mass median aerodynamic diameter)” value [2] was 3.37 μm.
